Source: patent publication US7968596B2, “Preparation and diabetic use of Gibberellins” (Australian Biomedical Company Pty, Ltd., priority 2001, dated 2011)

Key:
[1] = tested on: mice; settings: cited from earlier work
[2] = tested on: Human skin cell culture; test: Effect of Gibberellin A3 on cell growth compared to EGF in vitro (human skin cell culture, keratinocytes media); type: cell-based; settings: for Results: cell growth / cell division rate: five days
Description: Human skin cell culture experiments were conducted by using keratinocytes media. Each well was seeded with 1,500 cells. Incubation was carried out at 37° C. for a period of five days.

[3] = tested on: rats; settings: cited from earlier work
[4] = tested on: skin and eyes; settings: in vivo; cited from earlier work
[5] = tested on: Diabetic Rats; test: Effect on streptozotocin-induced diabetic rats (blood glucose, body weight); type: in vivo, Male Wistar rats; settings: for Blood glucose level after day 20th, 2 hours: 2 hours after administration; for Blood glucose level after day 20th, 5 hours: 5 hours after administration
Description: Male Wistar rats (290 g˜330 g) were weighed and lightly anaesthetized (4% halothane, 2:1 O2/N2O) so that blood glucose levels could be measured via a tail vein sample, using a Precision Q.I.D. glucometer. Diabetes was then induced by a single tail vein injection of streptozotocin (STZ, 60 mg/kg), which was dissolved immediately prior to use in citrate buffer (50 mM citric acid and 50 mM trisodium citrate; pH 4.5). An equivalent volume of citrate buffer was injected into age-matched control rats.
Rats were housed in groups of two during the experiment. Animal house temperature was maintained at 20° C. (±2° C.) with a 12 hour light/dark cycle, and rats were allowed free access to food and water.
Forty-eight hours after the administration of STZ (60 mg/kg), a blood glucose sample was taken and animals with blood glucose levels≧16 mM were considered to be diabetic. Rats were then randomly divided into groups. The slow-acting, Lente Monotard insulin was used and Gibberellin sodium salt was made up as required in distilled water immediately prior to use. Blood glucose readings were obtained two hours or 5 hours after the administration of drug(s) every three days.

[6] = Keratinocyte medium containing no EGF, but containing Gibberellin A3 (5 μg/ml)
[7] = Perfect keratinocyte medium (containing EGF) plus Gibberellin A3 (5 μg/ml)
[8] = Group 1: Insulin 4 unit/rat sub-cutaneous daily
[9] = Group 2: Insulin 2 unit/rat sub-cutaneous daily

For C=C1C[C@]23C[C@@]1(O)CC[C@H]2[C@@]12C=C[C@H](O)[C@@](C)(C(=O)O1)[C@H]2[C@@H]3C(=O)O [Gibberellin A3], the “acute oral LD50” value [1] is given as greater than 15000 mg/kg, the “effect of presence of both EGF and Gibberellin A3 on the rate of cell growth” value ([2]; Experiment 3.2, EGF plus Gibberellin A3 5 μg/ml) is given as “no additive effect” and the “stimulation of cell growth by Gibberellin A3 alone, compared to EGF” value ([2]; Experiment 3.4, no EGF, Gibberellin A3 5 μg/ml) is given as “as effectively as EGF”. For the same compound, the “Results: cell growth” value [2, 6] was “Very good growth (cell”, the cell division rate [2, 6] was “division rate = 100)” and the “Results: cell growth” value [2, 7] was “Very good growth (cell”. For the same compound, the cell division rate [2, 7] was “division rate = 100)”, the “acute oral LD50” value [3] was 6300 mg/kg and the “irritation to skin and eyes” value [4] was “non-irritating”.
In the case of “Insulin: slow-acting, Lente Monotard insulin”, the “Body weight change on the 30th day” value [5, 8] is reported as “+8%”, the “Blood glucose level after day 20th, 2 hours” value ([5]; Group 1: Insulin 4 unit/rat sub-cutaneous daily, STZ diabetic rats) is reported as 4~5 mM and the “Blood glucose level after day 20th, 5 hours” value [5, 8] is reported as 3~5 mM. The “Body weight change on the 30th day” value [5, 9] was −8%, the “Blood glucose level after day 20th, 2 hours” value [5, 9] was 15~18 mM and the “Blood glucose level after day 20th, 5 hours” value [5, 9] was 14~16 mM.
